Experimental data as given in PubChem BioAssay AID1963850 (Molecular Pharmacology Branch, DTP, NCI, 2024).

Tested on: 192522-019-R-J2-PDC complex tumor spheroid viability
Assay: Anticancer human tumor 192522-019-R-J2-PDC patient-derived colon adenocarcinoma cell line growth inhibition [POLQ]
Settings: for IC50: curve of first compound; for viability, T/C: stronger effect = lower value
Outline: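 Patient-derived tumour cells were co-cultured with HUVEC and mesenchymal stem cells as multicellular spheroids at 37 °C. They were treated with POLQ inhibitors (novobiocin, ART-558, RP6685) alone or combined with other agents. Top concentrations were at or near clinical Cmax (otherwise 10 microM; SN-38 at 1 microM), decreasing in half-log steps.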

[1] = second compound 0.0316 µM, first compound 0.0316 µM
[2] = second compound 0.0316 µM, first compound 0.1 µM
[3] = second compound 0.0316 µM, first compound 0.316 µM
[4] = second compound 0.0316 µM, first compound 1 µM
[5] = second compound 0.0316 µM, first compound 3.16 µM
[6] = second compound 0.0316 µM, first compound 10 µM
[7] = second compound 0.1 µM, first compound 0.0316 µM
[8] = second compound 0.1 µM, first compound 0.1 µM
[9] = second compound 0.1 µM, first compound 0.316 µM
[10] = second compound 0.1 µM, first compound 1 µM
[11] = second compound 0.1 µM, first compound 3.16 µM
[12] = second compound 0.1 µM, first compound 10 µM
[13] = second compound 0.316 µM, first compound 0.0316 µM
[14] = second compound 0.316 µM, first compound 0.1 µM
[15] = second compound 0.316 µM, first compound 0.316 µM
[16] = second compound 0.316 µM, first compound 1 µM
[17] = second compound 0.316 µM, first compound 3.16 µM
[18] = second compound 0.316 µM, first compound 10 µM
[19] = second compound 1 µM, first compound 0.0316 µM
[20] = second compound 1 µM, first compound 0.1 µM
[21] = second compound 1 µM, first compound 0.316 µM
[22] = second compound 1 µM, first compound 1 µM
[23] = second compound 1 µM, first compound 3.16 µM
[24] = second compound 1 µM, first compound 10 µM
[25] = second compound 3.16 µM, first compound 0.0316 µM
[26] = second compound 3.16 µM, first compound 0.1 µM
[27] = second compound 3.16 µM, first compound 0.316 µM
[28] = second compound 3.16 µM, first compound 1 µM
[29] = second compound 3.16 µM, first compound 3.16 µM
[30] = second compound 3.16 µM, first compound 10 µM
[31] = second compound 10 µM, first compound 0.0316 µM
[32] = second compound 10 µM, first compound 0.1 µM
[33] = second compound 10 µM, first compound 0.316 µM
[34] = second compound 10 µM, first compound 1 µM
[35] = second compound 10 µM, first compound 3.16 µM
[36] = second compound 10 µM, first compound 10 µM
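Also: spheroids exposed to drugs for seven days before reading.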
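For viability, T/C in this document: 100% = DMSO vehicle control viability in luminescence.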

Question: `CCc1cc2c(N3CCc4c(cc(Cn5ccnc5)cc4-c4cn(C)nc4C(F)(F)F)C3=O)cc(C)nc2c(OC)n1` + Cc1cccc(N(C)C(=O)C2C(O)CCN2c2nc(C)cc(C(F)(F)F)c2C#N)c1 was tested. Which IC50 (second compound 0.0316 µM) did it give?
Answer: > 10 µM

Question: What about the IC50 (second compound 0.1 µM) of the same compound?
Answer: > 10 µM

Question: What about the IC50 (second compound 0.316 µM) of the same compound?
Answer: > 10 µM

Question: And the IC50 (second compound 1 µM)?
Answer: > 10 µM

Question: And the IC50 (second compound 3.16 µM)?
Answer: > 10 µM

Question: And the IC50 (second compound 10 µM)?
Answer: > 10 µM

Question: What about the viability, T/C [1] of the same compound?
Answer: 116%

Question: What about the viability, T/C [2] of the same compound?
Answer: 91.1%

Question: What about the viability, T/C [3] of the same compound?
Answer: 83.4%

Question: And the viability, T/C [4]?
Answer: 87.9%

Question: What about the viability, T/C [5] of the same compound?
Answer: 72.2%

Question: And the viability, T/C [6]?
Answer: 68.1%

Question: And the viability, T/C [7]?
Answer: 99.3%

Question: What about the viability, T/C [8] of the same compound?
Answer: 99.4%

Question: And the viability, T/C [9]?
Answer: 88.1%

Question: What about the viability, T/C [10] of the same compound?
Answer: 78.5%

Question: And the viability, T/C [11]?
Answer: 75.8%

Question: And the viability, T/C [12]?
Answer: 69.6%

Question: And the viability, T/C [13]?
Answer: 112%

Question: What about the viability, T/C [14] of the same compound?
Answer: 99.1%

Question: And the viability, T/C [15]?
Answer: 85.4%

Question: What about the viability, T/C [16] of the same compound?
Answer: 79.4%

Question: And the viability, T/C [17]?
Answer: 82.7%

Question: And the viability, T/C [18]?
Answer: 72.7%

Question: What about the viability, T/C [19] of the same compound?
Answer: 102%

Question: What about the viability, T/C [20] of the same compound?
Answer: 94.9%

Question: And the viability, T/C [21]?
Answer: 84.2%

Question: What about the viability, T/C [22] of the same compound?
Answer: 84.6%

Question: What about the viability, T/C [23] of the same compound?
Answer: 78.3%

Question: And the viability, T/C [24]?
Answer: 72.6%

Question: What about the viability, T/C [25] of the same compound?
Answer: 107%

Question: And the viability, T/C [26]?
Answer: 98.4%

Question: What about the viability, T/C [27] of the same compound?
Answer: 101%

Question: What about the viability, T/C [28] of the same compound?
Answer: 79.8%

Question: What about the viability, T/C [29] of the same compound?
Answer: 82.5%

Question: What about the viability, T/C [30] of the same compound?
Answer: 73.9%

Question: What about the viability, T/C [31] of the same compound?
Answer: 110%

Question: And the viability, T/C [32]?
Answer: 103%

Question: What about the viability, T/C [33] of the same compound?
Answer: 93.9%

Question: What about the viability, T/C [34] of the same compound?
Answer: 90.1%

Question: And the viability, T/C [35]?
Answer: 86.7%

Question: What about the viability, T/C [36] of the same compound?
Answer: 79.3%

Question: Which results are given for `O=C(Nc1ccc(O)c(NS(=O)(=O)c2ccc(F)cc2)c1)c1ccc(-c2ccccc2)cc1` + Nc1ccc(C#CCN(C(=O)Cc2ncc(C(F)(F)F)cc2C(F)(F)F)c2ccc(F)cc2)nn1?
Answer: IC50 (second compound 0.0316 µM): > 10 µM; IC50 (second compound 0.1 µM): > 10 µM; IC50 (second compound 0.316 µM): > 10 µM; IC50 (second compound 1 µM): > 10 µM; IC50 (second compound 3.16 µM): > 10 µM; IC50 (second compound 10 µM): > 10 µM; viability, T/C [1]: 104%; viability, T/C [2]: 101%; viability, T/C [3]: 94.6%; viability, T/C [4]: 99.2%; viability, T/C [5]: 104%; viability, T/C [6]: 98.3%; viability, T/C [7]: 109%; viability, T/C [8]: 103%; viability, T/C [9]: 94%; viability, T/C [10]: 87.9%; viability, T/C [11]: 102%; viability, T/C [12]: 103%; viability, T/C [13]: 97.2%; viability, T/C [14]: 101%; viability, T/C [15]: 94.9%; viability, T/C [16]: 105%; viability, T/C [17]: 105%; viability, T/C [18]: 100%; viability, T/C [19]: 110%; viability, T/C [20]: 98.2%; viability, T/C [21]: 97.5%; viability, T/C [22]: 91.6%; viability, T/C [23]: 101%; viability, T/C [24]: 102%; viability, T/C [25]: 99.4%; viability, T/C [26]: 106%; viability, T/C [27]: 102%; viability, T/C [28]: 110%; viability, T/C [29]: 107%; viability, T/C [30]: 111%; viability, T/C [31]: 103%; viability, T/C [32]: 103%; viability, T/C [33]: 109%; viability, T/C [34]: 107%; viability, T/C [35]: 111%; viability, T/C [36]: 103%

Question: What does the source list for `CC(=O)O[C@H]1C(=O)[C@@]2(C)[C@H]([C@H](OC(=O)c3ccccc3)[C@]3(O)C[C@H](OC(=O)[C@H](O)[C@@H](NC(=O)c4ccccc4)c4ccccc4)C(C)=C1C3(C)C)[C@]1(OC(C)=O)CO[C@@H]1C[C@@H]2O` + Nc1ccc(C#CCN(C(=O)Cc2ncc(C(F)(F)F)cc2C(F)(F)F)c2ccc(F)cc2)nn1?
Answer: IC50 (second compound 0.0316 µM): > 3 µM; IC50 (second compound 0.1 µM): > 3 µM; IC50 (second compound 0.316 µM): > 3 µM; IC50 (second compound 1 µM): > 3 µM; IC50 (second compound 3.16 µM): > 3 µM; IC50 (second compound 10 µM): > 3 µM; viability, T/C (second compound 0.0316 µM, first compound 0.00949 µM): 95.6%; viability, T/C (second compound 0.0316 µM, first compound 0.03 µM): 65.1%; viability, T/C (second compound 0.0316 µM, first compound 0.0949 µM): 50.2%; viability, T/C (second compound 0.0316 µM, first compound 0.3 µM): 57%; viability, T/C (second compound 0.0316 µM, first compound 0.949 µM): 56.9%; viability, T/C (second compound 0.0316 µM, first compound 3 µM): 60.2%; viability, T/C (second compound 0.1 µM, first compound 0.00949 µM): 95.3%; viability, T/C (second compound 0.1 µM, first compound 0.03 µM): 63.3%; viability, T/C (second compound 0.1 µM, first compound 0.0949 µM): 55.4%; viability, T/C (second compound 0.1 µM, first compound 0.3 µM): 54.8%; viability, T/C (second compound 0.1 µM, first compound 0.949 µM): 61.2%; viability, T/C (second compound 0.1 µM, first compound 3 µM): 50.2%; viability, T/C (second compound 0.316 µM, first compound 0.00949 µM): 88.7%; viability, T/C (second compound 0.316 µM, first compound 0.03 µM): 69.6%; viability, T/C (second compound 0.316 µM, first compound 0.0949 µM): 54.2%; viability, T/C (second compound 0.316 µM, first compound 0.3 µM): 58.2%; viability, T/C (second compound 0.316 µM, first compound 0.949 µM): 57.9%; viability, T/C (second compound 0.316 µM, first compound 3 µM): 54.9%; viability, T/C (second compound 1 µM, first compound 0.00949 µM): 86.3%; viability, T/C (second compound 1 µM, first compound 0.03 µM): 62.6%; viability, T/C (second compound 1 µM, first compound 0.0949 µM): 53.7%; viability, T/C (second compound 1 µM, first compound 0.3 µM): 51.3%; viability, T/C (second compound 1 µM, first compound 0.949 µM): 57.4%; viability, T/C (second compound 1 µM, first compound 3 µM): 50.9%; viability, T/C (second compound 3.16 µM, first compound 0.00949 µM): 85.5%; viability, T/C (second compound 3.16 µM, first compound 0.03 µM): 65.7%; viability, T/C (second compound 3.16 µM, first compound 0.0949 µM): 55.8%; viability, T/C (second compound 3.16 µM, first compound 0.3 µM): 54.6%; viability, T/C (second compound 3.16 µM, first compound 0.949 µM): 59.2%; viability, T/C (second compound 3.16 µM, first compound 3 µM): 56%; viability, T/C (second compound 10 µM, first compound 0.00949 µM): 80%; viability, T/C (second compound 10 µM, first compound 0.03 µM): 66.3%; viability, T/C (second compound 10 µM, first compound 0.0949 µM): 60.2%; viability, T/C (second compound 10 µM, first compound 0.3 µM): 61.2%; viability, T/C (second compound 10 µM, first compound 0.949 µM): 60.9%; viability, T/C (second compound 10 µM, first compound 3 µM): 56.5%
